Measurements from patent US11613546B2, “Substituted pyridotriazine compounds and uses thereof” (Gilead Sciences, Inc., priority 2021, dated 2023).
pEC50: −log10 of the molar value. Like-named read-outs stand apart in the source and are kept apart here.

Legend:
Assay type in all cases: cell-based
HIV-1 (IIIB) = assay: Antiviral assay in MT-4 cells; settings: HIV-1 IIIB infected MT-4 cells, 5 days, Cell Titer Glo, read-out: MT4 EC50
Summary of the method: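 MT-4 cells infected with a 1:250 dilution of HIV-1 IIIB stock were incubated with serially diluted (1:3) compound for 5 days at 37 °C. Viability read by Cell Titer Glo luminescence; EC50 is the concentration giving 50% decrease in signal, from sigmoidal dose-response fits.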

MT-4 cells = assay: Cytotoxicity assay in MT-4 cells; settings: uninfected MT-4 cells, 5 days, Cell Titer Glo; read-out: CC50
Summary of the method: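 Uninfected MT-4 cells were incubated with 1:3 serially diluted compound in RPMI/10% FBS for 5 days at 37° C. Viability was read by CellTiter-Glo luminescence, with 10 μM puromycin as the baseline cytotoxicity control. Values are the concentration giving a 50% decrease in luminescence, from sigmoidal dose-response fits.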

pLai RLuc reporter virus = assay: HIV MT-4 serum shift antiviral reporter assay; settings: for pEC50: 72 h, Renilla Glo; for EC50: Human immunodeficiency virus 1, 72 h
Summary of the method: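 MT-4 cells pre-infected with pLai RLuc virus for 2 h at 37 °C, then incubated 72 h at 37 °C with compound in medium (RPMI, 10% FBS) with or without 50% human serum; Renilla luminescence read. EC50 from sigmoidal fit; serum shift = EC50(HS/CCM)/EC50(CCM).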

[1] = HS/CCM: 50% human serum, read-out: RLUC 50% HS
[2] = cell culture media (RPMI, 10% FBS), read-out: RLUC CCM
[3] = read-out: RLUC 50% HS, HS/CCM: 50% human serum
[4] = read-out: RLUC CCM, cell culture media (RPMI, 10% FBS)

## C[C@H]1CCC(C)(C)N2CN1n1cc(C(=O)NCc3ccc(F)cc3F)c(=O)c(O)c1C2=O [Example C94, (1R,2S)—N-(2,4-difluorobenzyl)-8-hydroxy-2,5,5-trimethyl-7,9-dioxo-2,3,4,5,7,9-hexahydro-1,6-methanopyrido[1,2-b][1,2,5]triazonine-10-carboxamide]
HIV-1 (IIIB)
  pEC50: 7.60
MT-4 cells
  CC50: 50 µM
pLai RLuc reporter virus; [1]
  pEC50: 6.44
pLai RLuc reporter virus; [2]
  pEC50: 8.21

## C[C@H]1CCCCN2CN1n1cc(C(=O)NCc3ccc(F)cc3F)c(=O)c(O)c1C2=O [Example C40, (1S,2S)—N-(2,4-difluorobenzyl)-9-hydroxy-2-methyl-8,10-dioxo-3,4,5,6,8,10-hexahydro-2H-1,7-methanopyrido[1,2-b][1,2,5]triazecine-11-carboxamide]
HIV-1 (IIIB)
  pEC50: 8.68
MT-4 cells
  CC50: 16 µM
pLai RLuc reporter virus; [1]
  pEC50: 6.86
pLai RLuc reporter virus; [2]
  pEC50: 8.89

## C[C@@H]1C=C[C@H](CF)N2CN1n1cc(C(=O)NCc3ccc(F)cc3F)c(=O)c(O)c1C2=O [Example C49a, (1S,10R,13R)—N-[(2,4-difluorophenyl)methyl]-10-(fluoromethyl)-6-hydroxy-13-methyl-5,8-dioxo-1,2,9-triazatricyclo[7.4.1.02,7]tetradeca-3,6,11-triene-4-carboxamide]
HIV-1 (IIIB)
  pEC50: 8.92
MT-4 cells
  CC50: 11.3 µM
pLai RLuc reporter virus; [1]
  pEC50: 6.85
pLai RLuc reporter virus; [2]
  pEC50: 9.19

## C[C@H]1C=CC(C)(C)N2CN1n1cc(C(=O)NCc3ccc(F)cc3F)c(=O)c(O)c1C2=O [Example C92, (1S,2S)—N-(2,4-difluorobenzyl)-8-hydroxy-2,5,5-trimethyl-7,9-dioxo-2,5,7,9-tetrahydro-1,6-methanopyrido[1,2-b][1,2,5]triazonine-10-carboxamide]
HIV-1 (IIIB)
  pEC50: 8.82
MT-4 cells
  CC50: 17.5 µM
pLai RLuc reporter virus; [1]
  pEC50: 6.61
pLai RLuc reporter virus; [2]
  pEC50: 9.17

## C[C@@H]1CC(F)(F)[C@H](C)N2CN1n1cc(C(=O)NCc3c(F)cc(F)cc3F)c(=O)c(O)c1C2=O [Example C35, (1S,2R,5S)-4,4-difluoro-8-hydroxy-2,5-dimethyl-7,9-dioxo-N-(2,4,6-trifluorobenzyl)-2,3,4,5,7,9-hexahydro-1,6-methanopyrido[1,2-b][1,2,5]triazonine-10-carboxamide]
HIV-1 (IIIB)
  pEC50: 8.80
MT-4 cells
  CC50: 29.9 µM
pLai RLuc reporter virus; [1]
  pEC50: 6.73
pLai RLuc reporter virus; [2]
  pEC50: 8.89

## O=C(NCc1c(F)cc(F)cc1F)c1cn2c(c(O)c1=O)C(=O)N1Cc3cc(F)ccc3CN2C1 [Example C1, (6R)-10-fluoro-1-hydroxy-2,14-dioxo-N-(2,4,6-trifluorobenzyl)-2,7,12,14-tetrahydro-6,13-methanobenzo[g]pyrido[1,2-b][1,2,5]triazonine-3-carboxamide]
HIV-1 (IIIB)
  pEC50: 7.70
MT-4 cells
  CC50: 10.1 µM
pLai RLuc reporter virus; [1]
  pEC50: 7.52
pLai RLuc reporter virus; [2]
  pEC50: 8.50

## C[C@@H]1CCC[C@H](C)N2CN1n1cc(C(=O)NCc3c(F)cc(F)cc3F)c(=O)c(O)c1C2=O [Example C14, (1R,2S,6R)-9-hydroxy-2,6-dimethyl-8,10-dioxo-N-(2,4,6-trifluorobenzyl)-3,4,5,6,8,10-hexahydro-2H-1,7-methanopyrido[1,2-b][1,2,5]triazecine-11-carboxamide]
HIV-1 (IIIB)
  pEC50: 8.70
MT-4 cells
  CC50: 8.06 µM
pLai RLuc reporter virus; [3]
  pEC50: 7.51
pLai RLuc reporter virus; [4]
  pEC50: 9.15

## C[C@@H]1CC[C@H](CF)N2CN1n1cc(C(=O)NCc3ccc(F)cc3F)c(=O)c(O)c1C2=O [Example C49b, (1S,10R,13R)—N-[(2,4-difluorophenyl)methyl]-10-(fluoromethyl)-6-hydroxy-13-methyl-5,8-dioxo-1,2,9-triazatricyclo[7.4.1.02,7]tetradeca-3,6-diene-4-carboxamide]
HIV-1 (IIIB)
  pEC50: 8.72
MT-4 cells
  CC50: 8.93 µM
pLai RLuc reporter virus; [1]
  pEC50: 6.34
pLai RLuc reporter virus; [2]
  pEC50: 9.00

## C[C@@H]1C/C=C\CN2CN1n1cc(C(=O)NCc3ccc(F)cc3F)c(=O)c(O)c1C2=O [Example C11, (1S,2R,Z)—N-(2,4-difluorobenzyl)-9-hydroxy-2-methyl-8,10-dioxo-3,6,8,10-tetrahydro-2H-1,7-methanopyrido[1,2-b][1,2,5]triazecine-11-carboxamide]
HIV-1 (IIIB)
  pEC50: 8.96
MT-4 cells
  CC50: 9.93 µM
pLai RLuc reporter virus; [1]
  pEC50: 8.14
pLai RLuc reporter virus; [2]
  pEC50: 9.57

## O=C(NCc1c(F)cc(F)cc1F)c1cn2c(c(O)c1=O)C(=O)N1CCCCN2C1 [Example C108, (1R)-8-hydroxy-7,9-dioxo-N-(2,4,6-trifluorobenzyl)-2,3,4,5,7,9-hexahydro-1,6-methanopyrido[1,2-b][1,2,5]triazonine-10-carboxamide]
HIV-1 (IIIB)
  pEC50: 8.48
MT-4 cells
  CC50: 22.9 µM
pLai RLuc reporter virus; [1]
  pEC50: 6.68
pLai RLuc reporter virus; [2]
  pEC50: 9.01

## O=C(NCc1c(F)cc(F)cc1F)c1cn2c(c(O)c1=O)C(=O)N1Cc3ccc(F)cc3CN2C1 [Example C4, (6S)-9-fluoro-1-hydroxy-2,14-dioxo-N-(2,4,6-trifluorobenzyl)-2,7,12,14-tetrahydro-6,13-methanobenzo[g]pyrido[1,2-b][1,2,5]triazonine-3-carboxamide]
HIV-1 (IIIB)
  pEC50: 8.92
MT-4 cells
  CC50: 12 µM
pLai RLuc reporter virus; [1]
  pEC50: 8.22
pLai RLuc reporter virus; [2]
  pEC50: 9.27

## C[C@@H]1C[C@@H](F)[C@@H](F)CN2CN1n1cc(C(=O)NCc3ccc(F)cc3F)c(=O)c(O)c1C2=O (single isomer, unassigned) [Example C38]
HIV-1 (IIIB)
  pEC50: 8.82
MT-4 cells
  CC50: 13.6 µM
pLai RLuc reporter virus; [1]
  pEC50: 7.77
pLai RLuc reporter virus; [2]
  pEC50: 8.96

## C[C@@H]1c2nc[nH]c2[C@H](C)N2CN1n1cc(C(=O)NCc3ccc(F)cc3F)c(=O)c(O)c1C2=O [Example C60, (4R,5S,13S)—N-(2,4-difluorobenzyl)-10-hydroxy-4,13-dimethyl-9,11-dioxo-4,9,11,13-tetrahydro-1H-5,12-methanoimidazo[4,5-g]pyrido[1,2-b][1,2,5]triazonine-8-carboxamide]
HIV-1 (IIIB); Human immunodeficiency virus 1, IIIB, MT4, 120 h
  pEC50: 7.02
MT-4 cells
  CC50: 50 µM
pLai RLuc reporter virus; read-out: RLUC 50% HS (nM), HS/CCM: 50% human serum, 72 h, Renilla Glo
  EC50: 104 nM
pLai RLuc reporter virus; read-out: RLUC CCM (nM), cell culture media (RPMI, 10% FBS), 72 h, Renilla Glo
  EC50: 42.6 nM

## C[C@@H]1C=C[C@@H](C)N2CN1C(=O)c1c(O)c(=O)c(C(=O)NCc3ccc(F)cc3F)cn12 [Example C69, (1S,2R,5R)—N-(2,4-difluorobenzyl)-8-hydroxy-2,5-dimethyl-7,9-dioxo-2,5,7,9-tetrahydro-1,6-methanopyrido[1,2-b][1,2,5]triazonine-10-carboxamide]
HIV-1 (IIIB)
  pEC50: 8.82
MT-4 cells
  CC50: 38.9 µM
pLai RLuc reporter virus; [3]
  pEC50: 6.84
pLai RLuc reporter virus; [4]
  pEC50: 9.26

## C[C@@H]1C/C=C\[C@H](C)N2CN1n1cc(C(=O)NCc3c(F)cc(F)cc3F)c(=O)c(O)c1C2=O [Example C7, (1S,2R,6S,Z)-9-hydroxy-2,6-dimethyl-8,10-dioxo-N-(2,4,6-trifluorobenzyl)-3,6,8,10-tetrahydro-2H-1,7-methanopyrido[1,2-b][1,2,5]triazecine-11-carboxamide]
HIV-1 (IIIB)
  pEC50: 8.68
MT-4 cells
  CC50: 9.19 µM
pLai RLuc reporter virus; [1]
  pEC50: 6.76
pLai RLuc reporter virus; [2]
  pEC50: 9.46

## C[C@H]1CC[C@H](C)N2CN1C(=O)c1c(O)c(=O)c(C(=O)NCc3c(F)cc(F)cc3F)cn12 [Example C28, (1S,2S,5S)-8-hydroxy-2,5-dimethyl-7,9-dioxo-N-(2,4,6-trifluorobenzyl)-2,3,4,5,7,9-hexahydro-1,6-methanopyrido[1,2-b][1,2,5]triazonine-10-carboxamide]
HIV-1 (IIIB)
  pEC50: 8.85
MT-4 cells
  CC50: 6.87 µM
pLai RLuc reporter virus; [3]
  pEC50: 6.50
pLai RLuc reporter virus; [4]
  pEC50: 9.48

## C[C@H]1C=C[C@H](C)N2CN1C(=O)c1c(O)c(=O)c(C(=O)NCc3c(F)cc(F)cc3F)cn12 [Example C26, (1R,2S,5S)-8-hydroxy-2,5-dimethyl-7,9-dioxo-N-(2,4,6-trifluorobenzyl)-2,5,7,9-tetrahydro-1,6-methanopyrido[1,2-b][1,2,5]triazonine-10-carboxamide]
HIV-1 (IIIB)
  pEC50: 8.62
MT-4 cells
  CC50: 28.1 µM
pLai RLuc reporter virus; [3]
  pEC50: 6.46
pLai RLuc reporter virus; [4]
  pEC50: 9.20

## O=C(NCc1c(F)cc(F)cc1F)c1cn2c(c(O)c1=O)C(=O)N1Cc3ccc(F)cc3CN2C1 [Example C2, (6R)-9-fluoro-1-hydroxy-2,14-dioxo-N-(2,4,6-trifluorobenzyl)-2,7,12,14-tetrahydro-6,13-methanobenzo[g]pyrido[1,2-b][1,2,5]triazonine-3-carboxamide]
HIV-1 (IIIB)
  pEC50: 7.74
MT-4 cells
  CC50: 12.8 µM
pLai RLuc reporter virus; [1]
  pEC50: 7.32
pLai RLuc reporter virus; [2]
  pEC50: 8.54

## C[C@@H]1C/C=C\CN2CN1n1cc(C(=O)NCc3ccc(F)cc3F)c(=O)c(O)c1C2=O [Example C10, (1R,2R,Z)—N-(2,4-difluorobenzyl)-9-hydroxy-2-methyl-8,10-dioxo-3,6,8,10-tetrahydro-2H-1,7-methanopyrido[1,2-b][1,2,5]triazecine-11-carboxamide]
HIV-1 (IIIB)
  pEC50: 8.74
MT-4 cells
  CC50: 7.57 µM
pLai RLuc reporter virus; [1]
  pEC50: 6.47
pLai RLuc reporter virus; [2]
  pEC50: 9.40

## C[C@H]1CC[C@H](C)N2CN1C(=O)c1c(O)c(=O)c(C(=O)NCc3c(F)cc(F)cc3F)cn12 [Example C66, (1R,2S,5S)-8-hydroxy-2,5-dimethyl-7,9-dioxo-N-(2,4,6-trifluorobenzyl)-2,3,4,5,7,9-hexahydro-1,6-methanopyrido[1,2-b][1,2,5]triazonine-10-carboxamide]
HIV-1 (IIIB)
  pEC50: 8.85
MT-4 cells
  CC50: 10.4 µM
pLai RLuc reporter virus; [3]
  pEC50: 6.75
pLai RLuc reporter virus; [4]
  pEC50: 9.30
